Assay results as given in US7705118B2, “Methods for preparing internally constrained peptides and peptidomimetics” (New York University, priority 2004, dated 2010).

Tests used:
[1] = Circular dichroism of Bak BH3 peptides in 20% TFE/PBS; format: physicochemical; conditions: 20% TFE in PBS, 50 μM, 25° C., Yang's method
Method: The α-helical conformation of constrained peptide 10a was determined by circular dichroism spectroscopy. […] The HBS α-helix 10a is roughly 46% helical as measured by Yang's method (Chen et al., Biochemistry, 11:4120-4131 (1972), which is hereby incorporated by reference in its entirety). […]
CD spectra were recorded on AVIV 202SF CD spectrometer equipped with a temperature controller using 1 mm length cells and a scan speed of 5 nm/min at 25° C. […] The helix content of each peptide was determined from the mean residue CD at 222 nm, [θ]222 (deg cm^2 dmol^−1) corrected for the number of amide bonds (Chen et al., Biochemistry 11:4120-4131 (1972), which is hereby incorporated by reference in its entirety). Percent helicity was calculated from ratio [θ]222/[θ]max, where [θ]max=−39500×[1−(2.57/n)]. The [θ]max for HBS α-helices is calculated to be −33155 for n=16 (number of amide bonds in the peptide).

[2] = Circular dichroism of constrained peptide 3 and control peptide 1; format: physicochemical; conditions: aqueous buffer and TFE solutions
Method: The structure of constrained peptide 3 was studied with circular dichroism (“CD”). CD studies on the constrained peptide 3 and the control peptide 1 in 30 mM phosphate buffer pH 7.0 were performed to obtain a quantitative measure of the helical content. […] The relative percent helicity of peptides can theoretically be measured by the mean residue ellipticity at 222 nm (Lyu et al., “Alpha-helix Stabilization by Natural and Unnatural Amino Acids with Alkyl Side Chains,” Proc. Nat'l Acad. Sci. 88:5317-5320 (1991), which is hereby incorporated by reference in its entirety), although these estimates are not typically accurate for short helices.
CD spectra were recorded on an AVIV 202SF CD spectrometer equipped with a temperature controller using 1 mm path length cells. The scan speed was set to 5 nm/min and spectra were averaged over 5 scans. Spectral baselines were obtained under analogous conditions as that for the samples. All spectra are baseline subtracted, converted to a uniform scale of molar ellipticity, and replotted. The helix content of each peptide was determined from the mean residue CD at 222 nm, [θ]222 (deg cm^2 dmol^−1) corrected for the number of amide bonds (Chin et al., Proc. Nat'l Acad. Sci. U.S.A., 99:15416-15421 (2002); Chen et al., Biochemistry, 11:4120-4131 (1972), which are hereby incorporated by reference in their entirety). […]

Method for trypsin: At different time intervals, 100 μL of the above solution was taken out, quenched with 100 μL of 2% TFA aqueous solution, and then injected into reversed-phase HPLC to analyze the change in the area of the peptide peak compared to the area of internal control (tryptophan).

Structure (SMILES) | percent helicity [1] [%] | proteolysis in the presence of trypsin (trypsin) | CD spectrum [2]
CC[C@H](C)[C@H](NC(=O)[C@H](C)NC(=O)[C@H](CC(C)C)NC(=O)[C@H](CCC(N)=O)NC(=O)[C@H](CCCNC(=N)N)NC(=O)CNC(=O)[C@@H](NC(=O)[C@H](CCC(N)=O)NC(=O)CNC(C)=O)C(C)C)C(=O)N[C@H](C(=O)NCC(=O)N[C@@H](CC(=O)O)C(=O)N[C@@H](CC(=O)O)C(=O)N[C@H](C(=O)N[C@@H](CC(N)=O)C(=O)N[C@@H](CCCNC(=N)N)C(N)=O)[C@@H](C)CC)[C@@H](C)CC [peptide 9a] | ~26 | rapid proteolysis | –
COC(=O)[C@@H](NC(=O)[C@@H](NC(=O)[C@@H](NC(=O)[C@@H](NC(=O)[C@@H](NC(=O)[C@@H](NC(=O)[C@@H](NC(=O)[C@H](NCC=O)NC(C)=O)N[C@@H](C=O)CCC(=O)O)N[C@@H](C)C=O)N[C@@H](C)C=O)N[C@@H](C)C=O)N[C@@H](C)C=O)N[C@@H](C=O)CCC(=O)O)N[C@@H](C)C=O [peptide 1] | – | – | featureless spectrum
